System: C2C12 myoblasts
Assay: Expression of UPRmt markers, prohibitins and cell cycle regulators in C2C12 myoblasts treated with TAP (FIG. 3)
Format: cell-based
Details: 50 μg/ml TAP, different treatment periods (FIG. 3)
Procedure: Total RNA was extracted from MuSCs by sorting cells directly into TriPure RNA isolation reagent (Roche) or from cultured C2C12 myoblasts using TriPure reagent according to the product manual. Total RNA was transcribed to cDNA using QuantiTect Reverse Transcription Kit (Qiagen). Expression of selected genes was analyzed using the LightCycler480 system (Roche) and LightCycler® 480 SYBR Green I Master reagent (Roche). The acidic ribosomal protein 36b4 gene (ribosomal protein, large, P0, Rplp0) was used as housekeeping reference. C2C12 cells were lysed in a buffer composed of 50 mM Tris, 150 mM KCl, EDTA 1 mM, NP40 1%, nicotinamide 5 mM, sodium butyrate 1 mM and protease inhibitors cocktail (Roche) at pH 7.4. Proteins were separated by SDS-PAGE and transferred onto nitrocellulose membranes. Blocking and antibody incubations were performed in 3% BSA. The following primary antibodies were used: anti-cleavage caspase 3 (Cell Signalling); Anti-γH2AX (Millipore); anti-β-actin (Sigma). All secondary antibodies were from Jackson Immunoresearch. Antibody detection reactions were developed by enhanced chemiluminescence (Advansta, CA, USA) using x-ray films or imaged using the c300 imaging system (Azure Biosystems). The following primary antibodies were used: anti-HSP60 (Enzo Life Science); anti-PHB (Biolegend); anti-PHB2 (Santa Cruz); anti-CKD4 (Novus biologicals); anti-CCND1 (Santa Cruz); anti-CCND3 (Santa Cruz); anti-HSP90 (BD Biosciences); HSP70 (Abcam); anti-MT-CO1 (Biolegend); anti-ATP5A (Biolegend); anti-Grp78 (Abcam); and anti-CLPP (Sigma).

CS(=O)(=O)c1ccc([C@@H](O)[C@@H](CO)NC(=O)C(Cl)Cl)cc1 [thiamphenicol]
UPR^mt induction: induction
cell cycle gene expression / cell cycle regulators: induced
mitonuclear imbalance: induces
prohibitins expression: induced
UPR^mt induction (listed as TAP): induces
cell cycle gene expression / cell cycle regulators (listed as TAP): induces

Source: patent US20190054098A1, “AGENTS AND METHODS USING THEREOF FOR THE PREVENTION AND TREATMENT OF STEM CELLS SENESCENCE” (ECOLE POLYTECHNIQUE FEDERALE DE LAUSANNE (EPFL), priority 2015, published 2019)
